Measured values from PubChem BioAssay (NCI).
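Five compound concentrations were applied to cells in 96-well plates for 48 hours; endpoints were derived by simple linear interpolation of the resulting dose-response curve. TGI is the concentration that stops growth completely.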

Legend:
Experiment in all cases: inhibition of tumour cell growth, NCI panel, 48 h
[1] = test system: SK-MEL-5 melanoma
[2] = test system: SK-MEL-2 melanoma
[3] = test system: UACC-257 melanoma
[4] = test system: K-562 leukemia
[5] = test system: NCI/ADR-RES ovarian
[6] = test system: DU-145 prostate
[7] = test system: IGROV1 ovarian
[8] = test system: MALME-3M melanoma
[9] = test system: NCI-H226 lung
[10] = test system: EKVX NSCLC
[11] = test system: MCF7 breast
[12] = test system: SF-295 CNS
[13] = test system: NCI-H460 lung
[14] = test system: NCI-H23 lung
[15] = test system: MDA-MB-435
[16] = test system: SK-MEL-28 melanoma
[17] = test system: SK-OV-3 ovarian
[18] = test system: HOP-62 NSCLC
[19] = test system: BT-549 breast

SMILES	TGI [1]	TGI [2]	TGI [3]	TGI [4]	TGI [5]	TGI [6]	TGI [7]	TGI [8]	TGI [9]	TGI [10]	TGI [11]	TGI [12]	TGI [13]	TGI [14]	TGI [15]	TGI [16]	TGI [17]	TGI [18]	TGI [19]
COc1cc(OC)c(/C=N\Nc2nc3ccccc3c(=O)n2-c2ccccc2)c(OC)c1	> 79.7 µM	64 µM	> 76.5 µM	> 100 µM	46.9 µM	> 94.1 µM	> 100 µM	79.3 µM	44 µM	63.7 µM	> 73.8 µM	65.1 µM	> 77.8 µM	> 100 µM	> 72.7 µM	87.2 µM	77.6 µM	47.7 µM	
CC(C)C(CCOS(=O)(=O)O)CCC(C)[C@H]1[C@@H](O)C(O)C2[C@]3(O)C[C@@H](O)C4(O)C[C@@H](O)CC[C@]4(C)C3CC[C@@]21C (some centres undefined)	> 100 µM	> 100 µM		> 100 µM			> 100 µM	> 100 µM	> 100 µM	> 100 µM		> 100 µM	> 100 µM	> 100 µM		> 100 µM	> 100 µM	> 100 µM	
C[C@]12CCc3nn(-c4ccccc4)nc3C1CC[C@@H]1C2CC[C@]2(C)C(=O)CCC12 (some centres undefined)	> 100 µM	> 100 µM	> 100 µM	> 100 µM			> 100 µM	> 100 µM	> 100 µM	> 100 µM		> 100 µM	> 100 µM	> 100 µM		> 100 µM	> 100 µM	> 100 µM	
O=c1c2cc([N+](=O)[O-])ccc2n2n1CCCCC2	> 100 µM		> 100 µM	> 100 µM	> 100 µM	> 100 µM	> 100 µM	> 100 µM	> 100 µM	> 100 µM		> 100 µM	> 100 µM	> 100 µM	> 100 µM	> 100 µM	> 100 µM	> 100 µM	
c1ccc2c(c1)-c1ccccc1C2NC1=NCCO1	29.1 µM	39.5 µM		> 100 µM	> 100 µM	> 100 µM	40.3 µM	27 µM	56.3 µM	> 100 µM	60.8 µM	> 100 µM	27.1 µM	> 100 µM	53 µM	55.7 µM	> 100 µM	46.5 µM	
CCN(/N=C1\CC2C=CCN(C2)C(=O)Cc2c1[nH]c1ccccc21)S(=O)(=O)c1ccc(C)cc1 (centres undefined)	> 100 µM	> 100 µM	> 100 µM	> 100 µM			> 100 µM	> 100 µM	38.6 µM	> 100 µM		> 100 µM		> 100 µM					
CC1CC(=O)Nc2ccccc2N1C(=O)C1CC1 (centres undefined)	> 100 µM	> 100 µM	> 100 µM	> 100 µM		> 100 µM	> 100 µM	> 100 µM	> 100 µM	> 100 µM	> 100 µM	> 100 µM	> 100 µM	> 100 µM	> 100 µM	> 100 µM	> 100 µM	> 100 µM	> 100 µM
C=C(C)[C@H]1CC(=O)[C@@]2(C)C[C@H]3O[C@]3(C)CC/C=C(\C)CC[C@H]12	95.6 µM	> 100 µM	55.8 µM	47.2 µM	> 100 µM	> 100 µM	> 100 µM	> 100 µM	> 100 µM	> 100 µM	57.3 µM	> 100 µM	> 100 µM	> 100 µM	> 100 µM	> 100 µM	> 100 µM	> 100 µM	
O=C(Nc1ccc(F)cc1)c1cc2c(cc1Cl)Sc1nccn1S2(=O)=O	> 100 µM	> 100 µM		> 100 µM	> 100 µM	> 100 µM	> 100 µM	> 100 µM	> 100 µM	> 100 µM	> 100 µM	> 100 µM	> 100 µM		> 100 µM	> 100 µM	> 100 µM	92.9 µM	
C=C1CN2CCc3c([nH]c4ccccc34)C2CC1CC(=O)N(C)C (centres undefined)	> 309 µM	> 309 µM	> 309 µM	> 309 µM			> 309 µM	> 309 µM	> 309 µM	> 309 µM		> 309 µM	> 309 µM	> 309 µM		> 309 µM	> 309 µM	> 309 µM	
CC(N)C(C)c1ccccc1 (centres undefined)	> 100 µM	> 100 µM	> 100 µM	> 100 µM			> 100 µM	> 100 µM	> 100 µM	> 100 µM		> 100 µM	> 100 µM	> 100 µM		> 100 µM	> 100 µM	> 100 µM	
Cn1c(=O)n(C2(C)CSC2)c2ccccc21	> 100 µM		> 100 µM	> 100 µM			> 100 µM		> 100 µM	> 100 µM		> 100 µM	> 100 µM	> 100 µM		> 100 µM	> 100 µM	> 100 µM	
COc1ccc(-c2cc(=O)c3cc(O)ccc3o2)c(OC)c1OC		> 100 µM	> 100 µM	> 100 µM			> 100 µM	> 100 µM	> 100 µM	> 100 µM		69.2 µM		> 100 µM		> 100 µM	99.1 µM	> 100 µM	
O=C1CN(c2ccccc2)C(=O)CN1NCNN1CC(=O)N(c2ccccc2)CC1=O	> 100 µM		> 100 µM			> 100 µM	> 100 µM	> 100 µM		> 100 µM	> 100 µM	> 100 µM	> 100 µM	> 100 µM	> 100 µM	> 100 µM	> 100 µM	> 100 µM	> 100 µM
O[C@@]12Cc3c([nH]c4ccccc34)[C@@H]3Oc4c(-c5ccccc5)ccc5c4[C@@]31CCN(CC1CC1)[C@@H]2C5	3.25 µM	3.3 µM	3.45 µM	7.56 µM	6.58 µM		15 µM	3.99 µM		4 µM	3.22 µM	3.5 µM	3.36 µM	3.55 µM	3.27 µM	3.24 µM	10.7 µM	3.06 µM	23.4 µM
